Test results published in patent US6492137B1, “Response element compositions and assays employing same” (The Salk Institute for Biological Studies, priority 1989, dated 2002).

Tests used:
[1] = molecular target: T1, vitamin D receptor (VD3R) (Homo sapiens, UniProt P11473); assay: Cotransfection of vitamin D receptor with construct βRE1 in CV-1 cells; type: cell-based; conditions: cognate ligand
T1 construct: expressed in transfected cells; host or cells: CV-1 (monkey kidney)
T1 sequence (P11473 1-427): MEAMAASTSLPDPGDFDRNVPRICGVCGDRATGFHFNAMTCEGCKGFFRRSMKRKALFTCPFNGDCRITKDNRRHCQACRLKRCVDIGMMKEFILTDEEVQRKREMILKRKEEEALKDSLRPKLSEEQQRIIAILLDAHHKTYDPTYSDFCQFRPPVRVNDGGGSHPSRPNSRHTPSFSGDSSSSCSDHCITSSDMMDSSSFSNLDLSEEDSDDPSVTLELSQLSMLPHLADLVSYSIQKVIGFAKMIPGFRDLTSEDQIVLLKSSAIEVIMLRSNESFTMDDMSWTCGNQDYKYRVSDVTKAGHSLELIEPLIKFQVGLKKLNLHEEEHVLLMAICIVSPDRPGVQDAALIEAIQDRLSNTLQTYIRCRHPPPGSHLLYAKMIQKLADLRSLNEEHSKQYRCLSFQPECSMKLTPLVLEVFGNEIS
Text: (§1) Inspection of the sequences of βRE1, βRE2, and βRE3 (see FIG. 2b) identifies a tandem repeat of the 6 bp motif. The center to center separation of 11 bp between these repeats is one turn of the DNA helix. […] Apparently, a single half site element of the RARβ gene would reciprocally be responsive to the TR, ER, and/or other members of the receptor superfamily.

TR = assay: Cotransfection of TR with construct βRE1 in CV-1 cells; type: cell-based; conditions: cognate ligand
Text: as §1

GR = molecular target: T2, GR (Homo sapiens, UniProt P04150); assay: Cotransfection of GR with construct βRE1 in CV-1 cells; type: cell-based; conditions: absence or addition of the appropriate ligand
T2 construct: expressed in transfected cells; host or cells: CV-1 (monkey kidney)
T2 sequence (P04150 1-777): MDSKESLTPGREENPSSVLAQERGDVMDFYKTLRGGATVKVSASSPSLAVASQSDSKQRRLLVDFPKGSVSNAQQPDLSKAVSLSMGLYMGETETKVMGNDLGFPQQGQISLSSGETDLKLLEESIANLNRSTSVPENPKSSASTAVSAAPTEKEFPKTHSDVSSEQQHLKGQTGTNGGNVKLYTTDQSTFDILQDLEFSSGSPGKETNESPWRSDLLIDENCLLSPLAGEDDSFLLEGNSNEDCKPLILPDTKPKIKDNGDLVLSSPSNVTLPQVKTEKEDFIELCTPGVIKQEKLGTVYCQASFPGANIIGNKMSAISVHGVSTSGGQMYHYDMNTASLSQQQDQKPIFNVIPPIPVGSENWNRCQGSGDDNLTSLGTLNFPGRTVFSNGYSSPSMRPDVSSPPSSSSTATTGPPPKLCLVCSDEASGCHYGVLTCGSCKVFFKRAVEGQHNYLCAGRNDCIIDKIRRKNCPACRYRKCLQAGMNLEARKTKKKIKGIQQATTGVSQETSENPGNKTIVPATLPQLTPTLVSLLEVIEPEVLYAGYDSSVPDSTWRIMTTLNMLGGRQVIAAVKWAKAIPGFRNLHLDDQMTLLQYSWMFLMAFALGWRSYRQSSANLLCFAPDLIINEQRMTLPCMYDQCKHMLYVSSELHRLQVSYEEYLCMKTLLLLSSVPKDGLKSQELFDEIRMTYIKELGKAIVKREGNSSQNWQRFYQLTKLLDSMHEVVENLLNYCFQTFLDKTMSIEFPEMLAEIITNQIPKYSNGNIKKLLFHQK
Text: as §1

endogenous RA receptor = assay: Delta-MTV-CAT constructs, RA induction in CV-1 cells without cotransfected RAR expression vector; type: cell-based, monkey
Protocol: Cells were transfected in 10 cm dishes with 10 μg of DNA containing 5 μg of reporter plasmid, 1-2 μg of either RSV-LUC (a), or RSV-βGAL or pCH110 (c and d), pGEM4 as carrier DNA, and for the experiments shown in a and d, 1 μg of RSV-RAR expression vector or the same amount of an RSV vector generating a nonsense transcript. Cells were harvested 1 day after addition of retinoic acid. All CAT assays represent equivalent amounts of β-galactosidase activity; β-GAL assays were normalized to luciferase activity.

ER = molecular target: T3, ER (Homo sapiens, UniProt P03372); assay: Cotransfection of ER with construct βRE1 in CV-1 cells; type: cell-based; conditions: absence or addition of the appropriate ligand
T3 construct: expressed in transfected cells; host or cells: CV-1 (monkey kidney)
T3 sequence (P03372 1-595): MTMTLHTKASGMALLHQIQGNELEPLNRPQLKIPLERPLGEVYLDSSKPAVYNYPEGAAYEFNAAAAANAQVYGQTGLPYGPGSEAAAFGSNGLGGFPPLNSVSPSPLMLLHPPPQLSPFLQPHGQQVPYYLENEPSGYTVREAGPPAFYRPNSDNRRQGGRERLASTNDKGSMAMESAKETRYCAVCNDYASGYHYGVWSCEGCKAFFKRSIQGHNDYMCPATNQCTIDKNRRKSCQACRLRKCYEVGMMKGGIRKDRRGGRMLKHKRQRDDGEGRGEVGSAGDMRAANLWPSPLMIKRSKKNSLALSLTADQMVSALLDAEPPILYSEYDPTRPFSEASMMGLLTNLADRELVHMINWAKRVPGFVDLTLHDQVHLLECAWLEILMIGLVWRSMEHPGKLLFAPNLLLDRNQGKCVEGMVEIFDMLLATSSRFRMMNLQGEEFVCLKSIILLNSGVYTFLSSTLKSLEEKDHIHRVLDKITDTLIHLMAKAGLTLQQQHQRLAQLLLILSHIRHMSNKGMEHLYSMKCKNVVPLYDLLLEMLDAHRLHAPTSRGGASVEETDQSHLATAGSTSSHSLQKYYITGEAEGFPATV
Text: as §1

RAR = molecular target: T4, RAR (Homo sapiens, UniProt P10276); assay: Delta-MTV constructs, RA induction in CV-1 cells with cotransfected RAR expression vector; type: cell-based; conditions: Delta-MTV-CAT constructs; CV-1 cells
T4 construct: expressed in transfected cells; host or cells: CV-1 (monkey kidney)
T4 sequence (P10276 1-462): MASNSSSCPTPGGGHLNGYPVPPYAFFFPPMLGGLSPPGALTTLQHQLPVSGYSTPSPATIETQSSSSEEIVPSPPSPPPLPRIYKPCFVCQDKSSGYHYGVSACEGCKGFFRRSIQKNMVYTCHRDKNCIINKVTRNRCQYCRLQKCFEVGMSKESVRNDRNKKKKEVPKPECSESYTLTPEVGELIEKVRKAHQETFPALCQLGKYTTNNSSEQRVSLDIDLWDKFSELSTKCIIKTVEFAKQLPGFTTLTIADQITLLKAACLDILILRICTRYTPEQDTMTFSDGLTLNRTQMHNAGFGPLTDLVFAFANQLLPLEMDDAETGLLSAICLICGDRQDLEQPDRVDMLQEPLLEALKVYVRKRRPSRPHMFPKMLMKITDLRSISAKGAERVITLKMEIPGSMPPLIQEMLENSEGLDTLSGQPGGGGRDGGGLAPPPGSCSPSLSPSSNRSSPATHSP

RARα = molecular target: T5, RARα (Homo sapiens, UniProt P10276); assay: ΔSV-CAT reporter cotransfection assay in CV-1 cells with RARα expression plasmid, ±RA; type: cell-based; parameters: expressed in transfected cells; host or cells: CV-1 (monkey kidney); conditions: RA 1 μM
T5 sequence (P10276 1-462): T4 sequence (P10276 1-462)
Text: Receptor expression plasmids used in the following cotransfection assays have been described previously (pRShTRβ [see Thompson, et al., Proc. Natl. Acad. Sci. U.S.A. 86: 3494-3498 (1989)]; pRShRARα [see Giguere, et al., Nature 330: 624-629 (1987)]; pRShRARβ and pRshRARγ [see Ishikawa, et al., Mol. Endocrinol, 4: 837-844 (1990)]; and pRShVDR, [Schule, et al., Cell 61: 497-504 (1990)]. A basal reporter plasmid ΔSV-CAT was constructed by replacing the TK promoter in TK-CAT [Damm, et al., Nature 339: 593-597 (1989)] with the SphI-HindIII fragment of the SV40 early promoter. All of the recombinant CAT reporter plasmids used herein harbor a single copy of the indicated oligonucleotides at the unique HindIII site upstream of the SV40 promoter. Identity of the inserted oligonucleotides was confirmed by sequencing. To improve production of receptor proteins in COS cells, a new eukaryotic expression vector pCMX was prepared by modifying the plasmid CDM8 [Seed, B., Nature 329: 840-842 (1987)]. The CDM8 was cut with MluI and StuI in order to release the DNA fragment encoding the CMV/T7 promoter, SV40 small t intron/poly A signal, polyoma virus enhancer/origin, and SV40 enhancer/origin. The resulting fragment was ligated to a larger fragment of PvuII-digested PUC19. An internal deletion was introduced between unique BamHI and BclI sites present in the DCM8 portion. The stuffer sequence flanked by XbaI sites was replaced with a synthetic polylinker coding for 5′-KpnI/Asp718-EcoRV-BamHI -MscI-NheI-3′, followed by a stretch of 5′-[…]-3′ (SEQ ID NO:48) which can function as a universal termination signal for protein translation. The coding sequence of the luciferase [de Wet, et al., Mol. Cell. Biol. 7: 725-737 (1987)] and human TRβ, RARα, and VDR was placed in the polylinker region of the pCMX, generating pCMX-LUC, Pcmx-Htrβ, pCMX-hRARα, and pCMX-hVDR, respectively. The translation start site of the RARα was modified to […] by attaching the synthetic linker encoding a consensus translation start signal [Hollenberg, et al., Cell 55: 899-906 (1988)]. […]

VDR = molecular target: T6, VDR (Homo sapiens, UniProt P11473); assay: Gel retardation DNA-binding assay with VDR-expressing COS cell extracts; parameters: expressed in transfected cells; host or cells: COS cells (whole-cell extract); conditions: VDR COS cell extract
T6 sequence (P11473 1-427): T1 sequence (P11473 1-427)
Protocol: For DNA binding assays, COS cells were cultured in DMEM with 10% calf bovine serum and transfected by the calcium phosphate method with 20 μg of the pCMX receptor expression plasmid for 6 hours followed by a glycerol shock. After incubating the transfected COS cells for another 48 hours, the cells were harvested to prepare extracts for the DNA binding assay, carried out as described by Damm et al., Nature 339: 593-597 (1989). The extracts were made in 20 mM HEPES (pH 7.4), 0.4 M KCl, 2 mM DTT and 20% glycerol. A similar method was employed to prepare a whole cell extract from F9 stem cells. For the binding, 5 μg (COS) or 10 μg (F9) of proteins was incubated on ice for 20 minutes, first in 20 mM HEPES, 80 mM KCl, 1 mM DTT, 0.1% NP40, 2.5 μg of poly dI/dC, and 10% glycerol (cold competitor oligonucleotides, when included, were added during this pre-incubation period). Then 40 fmole of ^32P-labeled oligonucleotide probe (1-2×10^5 cpm, prepared by filling-in reaction using Klenow polymerase in the presence of α-^32P-dCTP) was added to the reaction mixture, followed by incubation at room temperature for 30 minutes. The receptor-DNA complexes were resolved by electrophoresis through 5% polyacrylamide gel containing 5% glycerol at 6 V/cm at room temperature.
Finally, in vitro DNA-binding assays were carried out with COS cell extracts containing one of these receptor proteins.

Row | Substance | activation with cotransfected vitamin D receptor, fold less [1] | activation with cotransfected TR, fold less (TR) | activation with cotransfected GR (GR) | RA-dependent induction in the absence of cotransfected RAR expression vector (endogenous RA receptor) | activation with cotransfected ER (ER) | increase of induction by cotransfection of RAR-alpha expression vector (RAR) | RA response (in words) (RARα) | VDR binding to labeled oligonucleotide probe (VDR)
1 | 5′-AAGCTTAAG-GGTTCA-CCGAA-AGTTCA-CACGCATATATTAGCTT-3′ (SEQ ID NO:5) (AAGCTTAAGGGTTCACCGAAAGTTCACTCGCATATATTAGCTT; DNA, backbone not given here) [βRE1, oligonucleotide including the β retinoic acid response element] | 10- to 20 fold | 10- to 20 fold | failed to result in appreciable activation | robust RA-dependent induction | failed to result in appreciable activation | two-fold |  | 
2 | DR-3: perfect tandem repeat of AGGTCA hexamers separated by 3 nucleotides (SEQ ID NO:25) (AGCTTCAGGTCAAGGAGGTCAGAGAGCT; DNA, backbone not given here; double-stranded DNA response element with agct overhangs, cloned into reporter) |  |  |  |  |  |  | clear activity | specific protein-DNA complex
